Reference: patent US20250099466A1 (BRISTOL-MYERS SQUIBB COMPANY, priority 2021, published 2025)
Entries after “also recorded” stand apart in the source; their conditions may differ.

Tests used:
[1] = test system: electrically induced carotid artery thrombus (ECAT) in rabbits; test: Prevention rabbit model of electrically induced carotid artery thrombus (ECAT); assay type: in vivo
Procedure: The rabbit ECAT model as described by Wong et al., Nonpeptide factor Xa inhibitors: II.
Male New Zealand white rabbits were anesthetized with ketamine (50 mg/kg+50 mg/kg/h intramuscularly) and xylazine (10 mg/kg+10 mg/kg/h intramuscularly). Thrombosis was induced by electrical stimulation of the control carotid artery for 3 minutes at 4 mA using an external stainless-steel bipolar electrode. Carotid blood flow was measured with an electromagnetic flow probe continuously over a 90-minute period to monitor thrombosis induced occlusion. Integrated carotid blood flow was measured by the area under the flowtime curve (see Wong et al.). In addition, thrombus from the injured artery was removed, blotted twice on a weighing paper to remove residual fluid, and weighed.
To achieve a stable plasma level with minimum experimental variability, compounds were administered by IV infusion. […] The IV infusion was continued throughout the experiment for both models.
Integrated blood flow, thrombus weight, aPTT (activated partial thromboplastin time), TT (thrombin time), and PT (prothrombin time) were also measured.

[2] = Half-life of milvexian; conditions: human, in vivo
[3] = test system: subjects undergoing elective total knee replacement surgery; test: Phase 2 study after elective total knee replacement: bleeding events (safety); assay type: in vivo, human; conditions: safety set, on-treatment
Description: The principal safety outcome was any bleeding, which was defined as the composite of major, clinically relevant nonmajor, and minimal bleeding. Secondary safety outcomes were: (a) major bleeding, (b) clinically relevant nonmajor bleeding, (c) clinically relevant bleeding, defined as the composite of major and clinically relevant nonmajor bleeding, and (d) minimal bleeding. Bleeding was classified as major if it was overt and associated with a decrease in hemoglobin of 2 g/dL or more or necessitated transfusion of 2 or more units of blood with a temporal association within 24 to 48 hours of the bleed; or if it occurred in a critical area or organ or contributed to death. […] Overt bleeding not meeting the criteria for major bleeding, but that necessitated medical examination or intervention or had clinical consequences, was classified as clinically relevant nonmajor bleeding. Bleeding not meeting the criteria for major or clinically relevant nonmajor bleeding was classified as minimal bleeding (Schulman et al., Definition of major bleeding in clinical investigations of antihemostatic medicinal products in surgical patients. J Thromb Haemost 2010; 8:202-4).
Analysis of safety outcomes was performed in the safety population, which included all randomized patients who received at least one dose of study medication; the time for analysis included the on-treatment period plus 2 days. For each bleeding outcome, the rate in each milvexian group was compared with that in the enoxaparin group with the same methods used for evaluation of the secondary efficacy outcomes. The Kaplan-Meier method was used to assess the time to the first occurrence of any bleeding with milvexian or enoxaparin.
The key secondary objective of the study was to assess the dose-response trend of milvexian for the occurrence of Any Bleeding events during the treatment period. Any Bleeding was defined as the composite of major bleeding according to the International Society on Thrombosis and Haemostasis (ISTH) criteria modified for the surgical setting, clinically relevant nonmajor bleeding events or minimal bleeding events as assessed by the clinical events committee (CEC).

[4] = milvexian 50 mg BID, listed as Milvexian
[5] = milvexian 100 mg BID, listed as Milvexian
[6] = milvexian 200 mg once daily, listed as Milvexian
[7] = milvexian all regimens combined
[8] = milvexian combined BID regimens

Structure (SMILES): C[C@@H]1CCC[C@H](n2cnc(-c3cc(Cl)ccc3-n3cc(Cl)nn3)cc2=O)c2cc(ccn2)-c2c(cnn2C(F)F)NC1=O [milvexian, (5R,9S)-9-(4-(5-chloro-2-(4-chloro-1H-1,2,3-triazol-1-yl)phenyl)-6-oxopyrimidin-1(6H)-yl)-21-(difluoromethyl)-5-methyl-21H-3-aza-1(4,2)-pyridina-2(5,4)-pyrazolacyclononaphan-4-one]
- thrombus weight reduction ([1]; highest dose (1+0.67 mg/kg+mg/kg/h IV), prevention ECAT): 70±2%
- integrated blood flow, % of the control level ([1]; highest dose (1+0.67 mg/kg+mg/kg/h IV), prevention ECAT, n=6): 76±5%
- duration of the patency of the carotid artery ([1]; prevention ECAT, 0.063+0.04, 0.25+0.17, 1+0.67 mg/kg+mg/kg/h IV): dose-dependent increase in duration of the patency of the carotid artery
- bleeding time ([1]; rabbit): without a significant increase in bleeding time
- antithrombotic 20% maximal effective concentration (EC20) ([1]; total plasma concentration, thrombus weight reduction, prevention ECAT): 55 nM
- half-life [2]: ~11 h
- Any Bleeding % ([3]; milvexian 25 mg BID): 1.4%
- Any Bleeding RR vs Enox ([3]; milvexian 25 mg BID): 0.33
- Any Bleeding n ([3]; milvexian 25 mg BID): 2 n
- Major+CRNM bleeding % ([3]; milvexian 25 mg BID): 0%
- Major+CRNM bleeding n ([3]; milvexian 25 mg BID): 0 n
- Minimal Bleeding % ([3]; milvexian 25 mg BID): (1.4%)
- Minimal Bleeding RR vs Enox ([3]; milvexian 25 mg BID): 0.50
- Minimal Bleeding n ([3]; milvexian 25 mg BID): 2 n
- Any Bleeding % ([3]; milvexian 25 mg BID, listed as Milvexian): (1.4%)
- Any Bleeding % ([3]; milvexian 25 mg once daily): 0%
- Any Bleeding n ([3]; milvexian 25 mg once daily): 0 n
- Major+CRNM bleeding n ([3]; milvexian 25 mg once daily): 0 n
- Minimal Bleeding n ([3]; milvexian 25 mg once daily): 0 n
- Any Bleeding % ([3]; milvexian 50 mg BID): 4.7%
- Any Bleeding RR vs Enox ([3]; milvexian 50 mg BID): 1.15
- Any Bleeding n ([3]; milvexian 50 mg BID): 7 n
- Major+CRNM bleeding % ([3]; milvexian 50 mg BID): 1.4%
- Major+CRNM bleeding RR vs Enox ([3]; milvexian 50 mg BID): 0.79
- Major+CRNM bleeding n ([3]; milvexian 50 mg BID): 2 n
- Minimal Bleeding % ([3]; milvexian 50 mg BID): (3.4%)
- Minimal Bleeding RR vs Enox ([3]; milvexian 50 mg BID): 1.23
- Minimal Bleeding n ([3]; milvexian 50 mg BID): 5 n
- Any Bleeding % [3, 4]: (4.7%)
- Major+CRNM bleeding % [3, 4]: (1.4%)
- Any Bleeding % ([3]; milvexian 50 mg once daily): (5.3%)
- Any Bleeding RR vs Enox ([3]; milvexian 50 mg once daily): 1.17
- Any Bleeding n ([3]; milvexian 50 mg once daily): 8 n
- Major+CRNM bleeding % ([3]; milvexian 50 mg once daily): 1.3%
- Major+CRNM bleeding RR vs Enox ([3]; milvexian 50 mg once daily): 0.68
- Major+CRNM bleeding n ([3]; milvexian 50 mg once daily): 2 n
- Minimal Bleeding % ([3]; milvexian 50 mg once daily): (4.0%)
- Minimal Bleeding RR vs Enox ([3]; milvexian 50 mg once daily): 1.35
- Minimal Bleeding n ([3]; milvexian 50 mg once daily): 6 n
- Major+CRNM bleeding % ([3]; milvexian 50 mg once daily, listed as Milvexian): (1.3%)
- Any Bleeding % ([3]; milvexian 100 mg BID): 4.7%
- Any Bleeding RR vs Enox ([3]; milvexian 100 mg BID): 1.14
- Any Bleeding n ([3]; milvexian 100 mg BID): 7 n
- Major+CRNM bleeding % ([3]; milvexian 100 mg BID): 0.7%
- Major+CRNM bleeding RR vs Enox ([3]; milvexian 100 mg BID): 0.39
- Major+CRNM bleeding n ([3]; milvexian 100 mg BID): 1 n
- Minimal Bleeding % ([3]; milvexian 100 mg BID): (4.7%)
- Minimal Bleeding RR vs Enox ([3]; milvexian 100 mg BID): 1.71
- Minimal Bleeding n ([3]; milvexian 100 mg BID): 7 n
- Any Bleeding % [3, 5]: (4.7%)
- Major+CRNM bleeding % [3, 5]: (0.7%)
- Any Bleeding % ([3]; milvexian 200 mg BID): (3.4%)
- Any Bleeding RR vs Enox ([3]; milvexian 200 mg BID): 0.81
- Any Bleeding n ([3]; milvexian 200 mg BID): 5 n
- Major+CRNM bleeding % ([3]; milvexian 200 mg BID): 0.7%
- Major+CRNM bleeding RR vs Enox ([3]; milvexian 200 mg BID): 0.39
- Major+CRNM bleeding n ([3]; milvexian 200 mg BID): 1 n
- Minimal Bleeding % ([3]; milvexian 200 mg BID): (2.7%)
- Minimal Bleeding RR vs Enox ([3]; milvexian 200 mg BID): 0.96
- Minimal Bleeding n ([3]; milvexian 200 mg BID): 4 n
- Major+CRNM bleeding % ([3]; milvexian 200 mg BID, listed as Milvexian): (0.7%)
- Any Bleeding % ([3]; milvexian 200 mg once daily): 6.1%
- Any Bleeding RR vs Enox ([3]; milvexian 200 mg once daily): 1.51
- Any Bleeding n ([3]; milvexian 200 mg once daily): 9 n
- Major+CRNM bleeding % ([3]; milvexian 200 mg once daily): 0.7%
- Major+CRNM bleeding RR vs Enox ([3]; milvexian 200 mg once daily): 0.40
- Major+CRNM bleeding n ([3]; milvexian 200 mg once daily): 1 n
- Minimal Bleeding % ([3]; milvexian 200 mg once daily): (5.4%)
- Minimal Bleeding RR vs Enox ([3]; milvexian 200 mg once daily): 2.01
- Minimal Bleeding n ([3]; milvexian 200 mg once daily): 8 n
- Any Bleeding % [3, 6]: (6.1%)
- Major+CRNM bleeding % [3, 6]: (0.7%)
- Any Bleeding % [3, 7]: 4.1%
- Any Bleeding n [3, 7]: 38 n
- Any bleeding RR (CI) vs enoxaparin [3, 7]: 0.99 (0.53-1.85)
- Clinically relevant non-major Bleeding % [3, 7]: 0.8%
- Clinically relevant non-major Bleeding RR (CI) vs enoxaparin [3, 7]: 0.55 (0.16-1.85)
- Clinically relevant non-major Bleeding n [3, 7]: 7 n
- Major Bleeding n [3, 7]: no major bleeds; also recorded: No CEC adjudicated major bleeding
- Major bleeding or CRNM Bleeding RR (CI) vs enoxaparin [3, 7]: 0.44 (0.14-1.35)
- Major+CRNM bleeding % [3, 7]: 0.8%
- Major+CRNM bleeding n [3, 7]: 7 n
- Minimal Bleeding % [3, 7]: 3.5%
- Minimal Bleeding RR (CI) vs enoxaparin [3, 7]: 1.26 (0.59-2.67)
- Minimal Bleeding n [3, 7]: 32 n
- Major Bleeding n ([3]; milvexian all regimens combined, listed as Milvexian): 0 n
- Any Bleeding % [3, 8]: 3.5%
- Any Bleeding n [3, 8]: 21 n
- Any bleeding RR (CI) vs enoxaparin [3, 8]: 0.86 (0.43-1.71)
- Clinically relevant non-major Bleeding % [3, 8]: 0.7%
- Clinically relevant non-major Bleeding RR (CI) vs enoxaparin [3, 8]: 0.49 (0.12-1.96)
- Clinically relevant non-major Bleeding n [3, 8]: 4 n
- Major Bleeding n [3, 8]: 0 n
- Major bleeding or CRNM Bleeding RR (CI) vs enoxaparin [3, 8]: 0.39 (0.11-1.44)
- Major+CRNM bleeding % [3, 8]: 0.7%
- Major+CRNM bleeding n [3, 8]: 4 n
- Minimal Bleeding % [3, 8]: 3.0%
- Minimal Bleeding RR (CI) vs enoxaparin [3, 8]: 1.10 (0.49-2.49)
- Minimal Bleeding n [3, 8]: 18 n
